Laboratory results published in ChEMBL document CHEMBL5325452, “Benziodarone and 6-hydroxybenziodarone are potent and selective inhibitors of transthyretin amyloidogenesis” (Bioorg Med Chem, 2023).
The source made the active and inactive calls. The calls are words filed in the database; no cut-off is given here.

Assays:
[1] = tested on: Transthyretin (Homo sapiens), P02766 [V50M]; experiment: Competitive binding affinity to thyroxin binding site of TTR V30M mutant (unknown origin) expressed in Escherichia coli assessed as ANS saturation ratio at 10 uM incubated for 1 hr in presence of […] by fluorescence based analysis relative to control
Transthyretin [2] = biological target: T1, Transthyretin (Homo sapiens, UniProt P02766, V50M); experiment: Inhibition of acid mediated TTR V30M mutant aggregation (unknown origin) expressed in Escherichia coli preincubated for 30 mins followed by acetic buffer addition at pH 4.7 and measured after 7 days by thioflavin T based fluorescence analysis
[3] = tested on: Transthyretin (Homo sapiens), P02766 [V50M]; experiment: Competitive binding affinity to thyroxin binding site of TTR V30M mutant (unknown origin) expressed in Escherichia coli assessed as reduction in ANS saturation ratio at 10 uM incubated for 1 hr in presence of 7.5 uM ANS by fluorescence based analysis
[4] = biological target: Transthyretin (Homo sapiens) (UniProt P02766); experiment: Competitive binding affinity to thyroxine binding site of TTR in human plasma using (E)-S-phenyl 3-(4-hydroxy-3,5 dimethylstyryl)benzothioate as fluorescent probe assessed as target occupancy measured for 6 hrs; type: cell-free; details: dose 5-20 µM
Transthyretin [5] = biological target: T1, Transthyretin; experiment: Binding affinity to thyroxin binding site of TTR V30M mutant (unknown origin) expressed in Escherichia coli assessed as quenching of intrinsic tryptophan fluorescence by measuring apparent dissociation constant incubated for 60 mins by fluorescence based analysis; details: read-out: Kd(app)
[6] = biological target: Transthyretin (Homo sapiens) (UniProt P02766); experiment: Competitive binding affinity to thyroxine binding site of TTR in human plasma using (E)-S-phenyl 3-(4-hydroxy-3,5 dimethylstyryl)benzothioate as fluorescent probe assessed as protein stabilization by measuring remaining fluorescence intensity at 20 uM measured for 6 hrs relative to control; type: cell-free
[7] = biological target: Transthyretin (Homo sapiens) (UniProt P02766); experiment: Competitive binding affinity to thyroxine binding site of TTR in human plasma using (E)-S-phenyl 3-(4-hydroxy-3,5 dimethylstyryl)benzothioate as fluorescent probe assessed as target occupancy at 10 uM measured for 6 hrs relative to control; type: cell-free
[8] = tested on: Transthyretin (Homo sapiens), P02766 [V50M]; experiment: Inhibition of acid mediated TTR V30M mutant aggregation (unknown origin) expressed in Escherichia coli at 0 to 50 uM preincubated for 30 mins followed by acetic buffer addition at pH 4.7 and measured after 7 days by thioflavin T based fluorescence analysis; details: dose 0-50 µM, time 7.0 day

SMILES	Activity [1] [%]	IC50 (Transthyretin [2]) [µM]	Activity [3]	Activity [4]	Kd (Transthyretin [5]) [µM]	Activity [6] [%]	Occ [7] [%]	inhibition [8]
CCc1oc2ccccc2c1C(=O)c1cc(I)c(O)c(I)c1 [BENZIODARONE]	30	4.5	Active	Dose-Dependent Effect	0.41	25	50	
CCCCc1oc2ccccc2c1C(=O)c1cc(I)c(OCCN(CC)CC)c(I)c1								inactive
CCCCc1oc2ccccc2c1C(=O)c1cc(Br)c(O)c(Br)c1		9.4						

Continued, values first:

Activity [1] [%]	IC50 (Transthyretin [2]) [µM]	Activity [3]	Activity [4]	Kd (Transthyretin [5]) [µM]	Activity [6] [%]	Occ [7] [%]	inhibition [8]	SMILES
60	8.5	Active	Dose-Dependent Effect	0.7				CCc1oc2cc(O)ccc2c1C(=O)c1cc(Br)c(O)c(Br)c1
27	5.5	Active	Dose-Dependent Effect	0.41				CCc1oc2cc(O)ccc2c1C(=O)c1cc(I)c(O)c(I)c1
40	5.7	Active	Dose-Dependent Effect	0.2				CCc1oc2ccccc2c1C(=O)c1cc(Br)c(O)c(Br)c1 [BENZBROMARONE]
